Measured values from patent US10987372B2, “Anti-hepatoma-virus agent” (KAGOSHIMA UNIVERSITY, priority 2016, dated 2021).

Tests used:
[1] = tested on: HCV; assay: Evaluation of anti-HCV activity: Renilla luciferase HCV RNA replication reporter in OR6 cells; type: cell-based; settings: 1 μM, culture for 3 days (FIG. 4)
Experimental: FIG. 4 is a graph showing anti-HCV activity levels of purine antimetabolites. OR6 cells were seeded at a concentration of 1.5×10^4 cells/well. Then, 24 hours later, purine antimetabolites were each diluted to result in a final concentration of 1 μM and each dilution was added to cells. After culture for 3 days, cells were collected to determine Renilla luciferase activity.
FIG. 7 is a graph showing anti-HCV activity of clofarabine. OR6 cells were seeded at a concentration of 1.5×10^4 cells/well. Then, 24 hour later, clofarabine was diluted to result in concentrations of 0, 15.6, 31.3, 62.5, 125, 250, 500, and 1000 nM and each dilution was added to cells. After culture for 3 days, cells were collected to determine Renilla luciferase activity.
Anti-HCV activity was evaluated using OR6 cells from the human liver cancer cell line HuH-7 and ORL8 cells from the human liver cancer cell line Li23. Since the Renilla Luciferase gene has been incorporated into the genome of the genotype-1b O strain in OR6 cells and ORL8 cells, it is possible to conveniently and accurately evaluate the level of HCV RNA replication by determining the Renilla Luciferase activity. Each agent was added to OR6 cells or ORL8 cells, the cells were recovered on day 3, and the Renilla Luciferase activity was determined. […]

[2] = tested on: HBV; assay: Determination of anti-HBV activity: HBV DNA by quantitative PCR in HepG2.2.15 cells; type: cell-based; settings: for anti-HBV activity (intracellular HBV DNA amount): 1 μM, culture for 7 days, quantitative PCR (FIG. 3)
Experimental: FIG. 3 is a graph showing anti-HBV activity levels of purine antimetabolites. HepG2.2.15 cells were seeded at a concentration of 1×10^5 cells/well. Then, 24 hours later, purine antimetabolites (clofarabine, cladribine, and fludarabine) and entecavir (ETV) were each diluted to result in a final concentration of 1 μM and each dilution was added to cells. After culture for 7 days, the cytoplasmic fraction was collected and DNA was purified by phenol-chloroform extraction. The intracellular HBV DNA amount was evaluated by quantitative PCR using 20 ng of purified DNA.
FIG. 5 is a graph showing anti-HBV activity of clofarabine. HepG2.2.15 cells were seeded at a concentration of 1×10^5 cells/well. Then, 24 hour later, clofarabine was diluted to result in concentrations of 0, 0.97, 1.95, 3.90, 7.81, 15.6, 31.3, 62.5, 125, 250, 500, and 1000 nM and each dilution was added to cells. After culture for 7 days, the cytoplasmic fraction was collected and DNA was purified by phenol-chloroform extraction. The intracellular HBV DNA amount was evaluated by quantitative PCR using 20 ng of purified DNA.
Anti-HBV activity was evaluated by quantitative PCR for determining the amount of HBV DNA in cells or HBV DNA in the culture supernatant on day 7 after the addition of the agent using the HepG2.2.15 cell line of HBV-producing cells obtained by introducing a gene having a length twice that of the HBV genome into the human liver cancer cell line HepG2. For PCR of HBV DNA, a forward primer (HBV-S190F; 5′-GCT CGT GTT ACA GGC GGG-3′: SEQ ID NO: 1) and a reverse primer (HBV-S703R; 5′-GAACCACTGAACAAATGGCACTAGTA-3′: SEQ ID NO: 2) were used. PCR was performed by carrying out a reaction at 95° C. for 10 sec, 62° C. for 10 sec, and 72° C. for 30 sec for 35 cycles.
For screening of the anti-HBV agent, the HepG2.2.15 line obtained by introducing the HBV gene into HepG2 cells of a human cancer cell line was used (Production of hepatitis B virus particles in HepG2 cells transfected with cloned hepatitis B virus DNA. Sells M A, Chen M L, and Acs G., Proc. Natl. Acad. Sci. USA 84: 1005-1009 (1987)). […]

[3] = tested on: leukemia; settings: clinical use for leukemia; cited from earlier work

Structure (SMILES)	anti-HCV activity (Renilla luciferase activity) [1]	anti-HBV activity (intracellular HBV DNA amount) [2]	concentration at which anti-HBV activity is exhibited ([2]; 7 days (FIG. 5))	effective blood level for leukemia [3]
Nc1nc(Cl)nc2c1ncn2[C@H]1C[C@H](O)[C@@H](CO)O1 [cladribine, 2-chloro-9-(2-deoxy-β-D-arabinofuranosyl)adenine]	has anti-HCV activity	does not have anti-HBV activity		
Nc1nc(Cl)nc2c1ncn2[C@@H]1O[C@H](CO)[C@@H](O)[C@@H]1F [clofarabine, 2-chloro-9-(2-deoxy-2-fluoro-β-D-arabinofuranosyl)adenine]	comparable to that of sofosbuvir	comparable to that of entecavir	about 20 nM	about 2 μM
